Results from patent US11806367B2, “Methods of treating lysosomal disorders” (The Regents of the University of California, priority 2017, dated 2023).
Where two headings read alike, the source gives them in different places.

Experiments:
Ctns^−/− mice = system: Ctns^−/− mice
Procedure: Ctns^−/− mice were exposed to myeloablative drugs currently used in clinic for HSC transplantation, Busulfan (Bu) and Cyclophosphamide (Cy) to test if drug-mediated myeloablation allow efficient engraftment of Ctns-expressing HSC in the preclinical model, decreased tissue cystine and to determine if any unexpected toxicity occurs because of cystinosis. Drugs were injected intraperitoneally (IP) in Ctns^−/− mice and WT mice as controls.

[1] = affected patients; cited from earlier work

In the case of `CS(=O)(=O)OCCCCOS(C)(=O)=O` [Bu, Busulfan], the “donor cell engraftment measured in the peripheral blood” value (Ctns^−/− mice; 4 months post-transplant) is reported as 94.0±0.8% and the “toxicity in Ctns^−/− mice” value (Ctns^−/− mice; mouse, in vivo, ip) is reported as “not toxic”.
For `O=P1(N(CCCl)CCCl)NCCCO1` (stereo not shown) [Cy, Cyclophosphamide], the “toxicity in Ctns^−/− mice” value (Ctns^−/− mice; IP injection, 4 months post-transplant, compared to WT controls) was “not toxic”.
For `NCCS` [cysteamine, mercaptoethylamine], the “effect on renal Fanconi syndrome” value [1] is listed as “has no effect”.
